We go through 24 compounds from PubChem BioAssay (NCI).

Some test systems named below: OVCAR-3 ovarian; UACC-257 melanoma; A498 renal; SNB-75 CNS; UO-31 renal; ACHN renal; SK-MEL-2 melanoma; TK-10 renal; HOP-92 NSCLC.
Holding throughout (assay): NCI anticancer screen, dose series, 48 h

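Five concentrations, 48 hours, 96-well plates. GI50 = concentration required for 50% inhibition of growth. TGI: total growth inhibition.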

For the compound `CC(/C=C/C(=O)c1sc(-n2nc(-c3ccccc3)cc2-c2ccccc2)nc1C)=C\c1ccccc1`, the TGI in the assay with OVCAR-3 ovarian, in the assay on UACC-257 melanoma, with A498 renal, in the assay on UO-31 renal, in the assay on ACHN renal and in the assay with SK-MEL-2 melanoma was more than 100 µM throughout. Besides, the GI50 was more than 100 µM in the assay with A498 renal and 28.4 µM in the assay on SNB-75 CNS.
`CN(C)c1ncnc2c1Cc1ccccc1C(=O)N2C`: the TGI in the assay on OVCAR-3 ovarian, in the assay on UACC-257 melanoma, with TK-10 renal, with SNB-75 CNS, in the assay with HOP-92 NSCLC and in the assay with UO-31 renal was more than 100 µM each time. Besides, the TGI in the assay on ACHN renal and with SK-MEL-2 melanoma was more than 100 µM throughout.
In the case of `CC1=C(C(=O)Nc2ccccc2C)C(c2ccc(C3C(C(=O)Nc4ccccc4C)=C(C)NC(C)=C3C(=O)Nc3ccccc3C)cc2)C(C(=O)Nc2ccccc2C)=C(C)N1`, the TGI was determined as 18.5 µM in the assay on OVCAR-3 ovarian; 9.84 µM in the assay on UACC-257 melanoma; 24.2 µM with TK-10 renal; 29 µM in the assay on A498 renal; 30.9 µM with SNB-75 CNS; 20.6 µM in the assay on HOP-92 NSCLC. The TGI came out at 26.7 µM with UO-31 renal, 16 µM with ACHN renal and 31.6 µM in the assay with SK-MEL-2 melanoma.
Take `COc1ccc(/C=N/N=C(\N)NO)c(Cl)c1O`: the TGI with OVCAR-3 ovarian was more than 100 µM; in the assay with UACC-257 melanoma, more than 100 µM; in the assay with HOP-92 NSCLC it was more than 100 µM; in the assay on UO-31 renal, 54.1 µM; in the assay on ACHN renal, more than 100 µM; in the assay on SK-MEL-2 melanoma it was 70.6 µM.
On to `C=CCCOC(=O)CO[N+](=O)[O-]`, for which the TGI in the assay on OVCAR-3 ovarian, in the assay on UACC-257 melanoma, with TK-10 renal, in the assay on SNB-75 CNS, with UO-31 renal and in the assay on ACHN renal was more than 100 µM throughout. This compound returned a TGI with SK-MEL-2 melanoma of more than 100 µM.
For the compound `COc1cc(Br)c(CC2(C#N)c3ccccc3C3C(N2C(=O)c2ccccc2)C3(Cl)Cl)cc1OC` (stereo unspecified), the TGI in the assay with OVCAR-3 ovarian, in the assay on UACC-257 melanoma, with TK-10 renal, with SNB-75 CNS, in the assay with HOP-92 NSCLC and in the assay with UO-31 renal was more than 65.5 µM each time. Besides, the TGI in the assay with ACHN renal and in the assay on SK-MEL-2 melanoma was more than 65.5 µM throughout.
In the case of `CC(=O)[O-].CC(=O)[O-].O=C(N/N=C/c1cc(Cl)cc(Cl)c1O)c1ccncc1.[Ni+2]`, the TGI in the assay with OVCAR-3 ovarian was 80.8 µM; with UACC-257 melanoma, 96.6 µM; in the assay with TK-10 renal, more than 100 µM; in the assay with A498 renal, more than 100 µM; in the assay with SNB-75 CNS it was more than 100 µM; in the assay on HOP-92 NSCLC, 76.9 µM. Besides, the TGI in the assay on UO-31 renal was more than 100 µM; in the assay on ACHN renal, more than 100 µM; with SK-MEL-2 melanoma, 87.4 µM. Moreover, the GI50 in the assay with HOP-92 NSCLC is 17.1 µM; in the assay with SK-MEL-2 melanoma, 46.6 µM.
For `COc1ccc(/C=C/C(=O)C(C)(C)CN2CCCCC2)cc1`, the TGI is 34.5 µM in the assay on OVCAR-3 ovarian; 46.2 µM in the assay with UACC-257 melanoma; 53.4 µM in the assay with TK-10 renal; 38.5 µM in the assay on A498 renal; 47.1 µM in the assay on SNB-75 CNS; 41.3 µM with UO-31 renal. Moreover, the TGI is 60.1 µM with ACHN renal and 32.7 µM with SK-MEL-2 melanoma.
Consider `CCOC(=O)Cc1nc2ccccc2s1`, for which the TGI was more than 10 µM in the assay with OVCAR-3 ovarian; 33.2 µM in the assay with UACC-257 melanoma; 55 µM in the assay on TK-10 renal; 36 µM with A498 renal; 94.1 µM in the assay with SNB-75 CNS; 29.7 µM in the assay with UO-31 renal. The figures for the TGI in the assay with ACHN renal and with SK-MEL-2 melanoma were 32.1 µM and 36.5 µM, respectively.
Consider `C[N+](C)(C)CC(=O)N/N=C(\CCC(=O)NCCc1ccccc1)CC(=O)c1ccccc1`, for which the TGI in the assay with OVCAR-3 ovarian, in the assay on UACC-257 melanoma, in the assay with TK-10 renal, in the assay on A498 renal, in the assay on HOP-92 NSCLC and in the assay with UO-31 renal was more than 100 µM in each case. Also, the TGI in the assay with ACHN renal and in the assay on SK-MEL-2 melanoma was more than 100 µM in each case.
`N#CC(/C(=N\NC(=O)c1ccncc1)C(=O)Nc1ccc([N+](=O)[O-])cc1[N+](=O)[O-])c1nc(-c2ccc(Br)cc2)cs1` (stereo unspecified): the TGI with OVCAR-3 ovarian, in the assay with UACC-257 melanoma, in the assay with TK-10 renal, in the assay on A498 renal, in the assay with SNB-75 CNS and with UO-31 renal was more than 100 µM each time. In addition, the TGI in the assay with ACHN renal and in the assay with SK-MEL-2 melanoma was more than 100 µM in each case.
Regarding `c1ccc(N=c2snc3scc(-c4ccccc4)n23)cc1`, the TGI was 62.2 µM with OVCAR-3 ovarian; more than 100 µM in the assay on UACC-257 melanoma; more than 100 µM with TK-10 renal; more than 100 µM in the assay with A498 renal; more than 100 µM in the assay on SNB-75 CNS; 76.3 µM in the assay with HOP-92 NSCLC. Further, the values for the TGI with UO-31 renal, in the assay on ACHN renal and with SK-MEL-2 melanoma were 81.4 µM, more than 100 µM and more than 100 µM, respectively.
Turning to `CCSC(SCC)c1cc2c(cc1Br)OCO2`, the TGI is 57.3 µM with OVCAR-3 ovarian; more than 100 µM in the assay on TK-10 renal; 86.7 µM in the assay with A498 renal; 62.9 µM with SNB-75 CNS; 55.3 µM in the assay with HOP-92 NSCLC; 85.3 µM in the assay with UO-31 renal. In addition, the figures for the TGI in the assay on ACHN renal and with SK-MEL-2 melanoma were more than 100 µM and 51.9 µM, respectively.
With `CSc1nc(NC2OCC(OC(C)=O)C(OC(C)=O)C2OC(C)=O)c(N=C(C)C(C)=O)c(=O)n1C` (stereo unspecified), the TGI in the assay on OVCAR-3 ovarian, in the assay with UACC-257 melanoma, in the assay with TK-10 renal, in the assay with A498 renal, in the assay on SNB-75 CNS and with HOP-92 NSCLC was more than 100 µM each time. Also, the TGI with UO-31 renal, with ACHN renal and in the assay with SK-MEL-2 melanoma was more than 100 µM each time.
Take `Cc1ccc2[nH]c3c(C)c4c(c(C)c3c2c1)CN(C)C=C4`: the TGI is 14.8 µM in the assay with OVCAR-3 ovarian; 8 µM in the assay with UACC-257 melanoma; 21.9 µM in the assay on TK-10 renal; 2.27 µM in the assay with SNB-75 CNS; 4.74 µM in the assay on HOP-92 NSCLC; 19.5 µM with UO-31 renal. For the same compound, the TGI in the assay with ACHN renal was 20.5 µM; with SK-MEL-2 melanoma it was 3.2 µM.
Consider `Cc1c(-c2ccccc2)c(=O)oc2ccc(Cl)cc12`, for which the TGI in the assay with OVCAR-3 ovarian is more than 100 µM; in the assay on UACC-257 melanoma, more than 100 µM; in the assay with TK-10 renal, more than 100 µM; in the assay on A498 renal, more than 100 µM; with SNB-75 CNS it was 43.7 µM; in the assay on HOP-92 NSCLC it was more than 100 µM. Moreover, the TGI with UO-31 renal and with SK-MEL-2 melanoma was more than 100 µM each time.
On to `CC1CN(c2ccc(Cl)cc2)CC(C)(C)OC(=O)O1` (stereo unspecified), for which the TGI in the assay with OVCAR-3 ovarian, with UACC-257 melanoma, in the assay on TK-10 renal, with SNB-75 CNS, in the assay on HOP-92 NSCLC and with UO-31 renal was more than 100 µM each time. Also, the TGI in the assay on ACHN renal and in the assay on SK-MEL-2 melanoma was more than 100 µM each time.
Take `O=c1c(-c2ccccc2)c2oc(c1-c1ccccc1)CS(=O)(=O)CCC2`: the TGI was 73 µM in the assay on OVCAR-3 ovarian; more than 100 µM in the assay on UACC-257 melanoma; more than 100 µM in the assay on TK-10 renal; more than 100 µM in the assay on HOP-92 NSCLC; more than 100 µM in the assay with ACHN renal; more than 100 µM in the assay on SK-MEL-2 melanoma.
Take `COCc1c(CO)cnc(C)c1OC1OC(CO)C(O)C(O)C1O` (stereo unspecified): the TGI in the assay with OVCAR-3 ovarian, in the assay on UACC-257 melanoma, in the assay with A498 renal, in the assay with SNB-75 CNS, in the assay on UO-31 renal and in the assay on ACHN renal was more than 100 µM throughout. In the assay with SK-MEL-2 melanoma, the TGI was more than 100 µM.
As for `Cc1ccc(-n2c3nc(=O)n(C)c(=O)c-3nc3ccccc32)cc1`, the TGI was 17.6 µM in the assay with OVCAR-3 ovarian; 26.9 µM with UACC-257 melanoma; more than 100 µM in the assay with TK-10 renal; more than 100 µM in the assay with A498 renal; 39.7 µM with SNB-75 CNS; more than 100 µM with UO-31 renal. Also, the TGI with ACHN renal was 49.2 µM; in the assay with SK-MEL-2 melanoma, 37.2 µM.
Turning to `Nc1nc(Cl)cc(NCCCCCNc2cc(Cl)nc(N)n2)n1`, the TGI in the assay with OVCAR-3 ovarian, with UACC-257 melanoma, in the assay with TK-10 renal, with SNB-75 CNS, in the assay with HOP-92 NSCLC and in the assay with UO-31 renal was more than 100 µM throughout. Also, the TGI was 52.2 µM in the assay on ACHN renal and more than 100 µM in the assay with SK-MEL-2 melanoma.
For the compound `CC(=O)NC(CCCCN(Cc1ccccc1)C(=O)NCCCl)C(=O)NCc1ccccc1` (stereo unspecified), the TGI with OVCAR-3 ovarian, in the assay with UACC-257 melanoma, with SNB-75 CNS, in the assay on HOP-92 NSCLC, with UO-31 renal and in the assay with ACHN renal was more than 100 µM throughout. Besides, the TGI in the assay on SK-MEL-2 melanoma is more than 100 µM.
Turning to `O=C(Cc1nc2ccccc2s1)Nc1ccc(Cl)cc1`, the TGI with OVCAR-3 ovarian, in the assay with UACC-257 melanoma, in the assay with TK-10 renal, with A498 renal, in the assay with SNB-75 CNS and with UO-31 renal was more than 100 µM in each case. For the same compound, the TGI with ACHN renal and with SK-MEL-2 melanoma was more than 100 µM each time.
As to `O=C(O)C1=C(C(=O)Nc2ccccc2)C2C=CC1C2` (stereo unspecified), the TGI with OVCAR-3 ovarian, in the assay on UACC-257 melanoma, in the assay on TK-10 renal, in the assay with A498 renal, in the assay on SNB-75 CNS and in the assay with HOP-92 NSCLC was more than 100 µM in each case. In addition, the TGI in the assay with UO-31 renal and in the assay on ACHN renal was more than 100 µM in each case.
